Experimental data from ChEMBL document CHEMBL1124152, “Conformationally constrained renin inhibitory peptides: gamma-lactam-bridged dipeptide isostere as conformational restriction” (J Med Chem, 1988).

target: T1, Renin (Homo sapiens) (UniProt P00797); test: Inhibitory activity against human plasma renin at 10e-5 M; type: cell-free
T1 sequence (whole entry): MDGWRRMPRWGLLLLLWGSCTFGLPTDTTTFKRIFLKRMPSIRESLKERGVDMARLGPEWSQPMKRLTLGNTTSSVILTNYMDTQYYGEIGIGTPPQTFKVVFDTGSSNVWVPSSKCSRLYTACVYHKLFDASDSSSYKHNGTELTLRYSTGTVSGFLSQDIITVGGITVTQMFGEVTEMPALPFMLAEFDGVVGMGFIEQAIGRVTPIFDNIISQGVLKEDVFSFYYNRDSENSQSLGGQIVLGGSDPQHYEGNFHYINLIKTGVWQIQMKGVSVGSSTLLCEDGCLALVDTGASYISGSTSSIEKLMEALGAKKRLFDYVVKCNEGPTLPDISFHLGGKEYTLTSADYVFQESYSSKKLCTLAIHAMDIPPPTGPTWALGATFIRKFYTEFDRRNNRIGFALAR

| SMILES | inhibition [%] |
| --- | --- |
| CCCC[C@@H](C(=O)N[C@@H](CC(C)C)[C@@H](O)CC(=O)N[C@H](C(=O)NCc1ccccn1)[C@H](C)CC)N1CCC(Cc2ccccc2)C1=O (stereo in doubt; form 1) | 46 |
| CCCC[C@@H](C(=O)N[C@@H](CC(C)C)[C@@H](O)CC(=O)N[C@H](C(=O)NCc1ccccn1)[C@H](C)CC)N1CCC(Cc2ccccc2)C1=O (stereo in doubt; form 2) | 46 |

target: T2, Renin (Homo sapiens, UniProt P00797); test: Inhibitory activity against human plasma renin; type: cell-free
T2 sequence (P00797 whole entry): T1 sequence (whole entry)

| SMILES | IC50 [µM] |
| --- | --- |
| CCCC[C@H](NC(=O)CCc1ccccc1)C(=O)N[C@@H](CC(C)C)[C@@H](O)CC(=O)N[C@H](C(=O)NCc1ccccn1)[C@H](C)CC | 0.35 |
| CCCC[C@H](NC(=O)CCc1ccccc1)C(=O)N[C@@H](CC(C)C)[C@@H](O)C[C@H](C(=O)N[C@H](C(=O)NCc1ccccn1)[C@H](C)CC)C(C)C | 0.12 |
| CCCC[C@H](NC(=O)[C@H](Cc1ccccc1)NC(=O)OCc1ccccc1)C(=O)N[C@@H](CC(C)C)[C@@H](O)C[C@H](C(=O)N[C@H](C(=O)NCc1ccccn1)[C@H](C)CC)C(C)C | 0.026 |
| CCCC[C@@H](C(=O)N[C@@H](CC(C)C)[C@@H](O)C[C@H](C(=O)N[C@H](C(=O)NCc1ccccn1)[C@H](C)CC)C(C)C)N1CCC(Cc2ccccc2)(NC(=O)OCc2ccccc2)C1=O (stereo in doubt; form 1) | 0.0065 |
| CCCC[C@@H](C(=O)N[C@@H](CC(C)C)[C@@H](O)C[C@H](C(=O)N[C@H](C(=O)NCc1ccccn1)[C@@H](C)CC)C(C)C)N1CCC(Cc2ccccc2)C1=O (stereo in doubt; form 1) | 0.027 |
| CCCC[C@@H](C(=O)N[C@@H](CC(C)C)[C@@H](O)C[C@H](C(=O)N[C@H](C(=O)NCc1ccccn1)[C@H](C)CC)C(C)C)N1CCC(Cc2ccccc2)(NC(=O)OCc2ccccc2)C1=O (stereo in doubt; form 2) | 0.0065 |
| CCCC[C@@H](C(=O)N[C@@H](CC(C)C)[C@@H](O)C[C@H](C(=O)N[C@H](C(=O)NCc1ccccn1)[C@@H](C)CC)C(C)C)N1CCC(Cc2ccccc2)C1=O (stereo in doubt; form 2) | 0.014 |
